From ChEMBL document CHEMBL4219060, “Discovery of EBI-1051: A novel and orally efficacious MEK inhibitor with benzofuran scaffold” (Bioorg Med Chem, 2018)
Each block holds one molecule with its values, some of them ahead of it. Activity calls are given as the source filed them. The calls are words filed in the database; no cut-off is given here.

Columns and labels:
[1] = system: COLO 205; assay: Antiproliferative activity against human COLO205 cells harboring BRAF mutant/wild type KRAS/wild type PIK3CA after 72 hrs by CCK8 assay; details: COLO 205, 72 h
[2] = Half life in Sprague-Dawley rat at 10 mg/kg, po via gavage; assay type: ADME, organism-based; details: in vivo
[3] = AUC (0 to t) in Sprague-Dawley rat at 10 mg/kg, po via gavage; assay type: ADME, organism-based; details: in vivo
[4] = Cmax in Sprague-Dawley rat at 10 mg/kg, po via gavage; assay type: ADME, organism-based; set-up: dose 10 mg/kg, route oral; details: in vivo
[5] = system: U-937; assay: Antiproliferative activity against human U937 cells harboring wild type BRAF/KRAS/PIK3CA after 72 hrs by CCK8 assay; assay type: functional, cell-based
[6] = system: Calu-6; assay: Antiproliferative activity against human Calu6 cells harboring KRAS mutant/wild type BRAF/PIK3CA after 72 hrs by CCK8 assay; assay type: functional, cell-based
[7] = system: Mus musculus; assay: Toxicity in athymic nude mouse xenografted with human COLO205 cells assessed as body weight loss at 10 mg/kg, po qd for 14 days measured twice per week during compound dosing; assay type: organism-based; details: in vivo, 336 h
[8] = system: COLO 205; assay: Antitumor activity against human COLO205 cells xenografted in athymic nude mouse assessed as tumor growth inhibition at 10 mg/kg, po qd for 14 days measured twice per week during compound dosing relative to control; details: COLO 205, po, 336 h, read-out: TGI
[9] = system: DLD-1; assay: Antiproliferative activity against human DLD1 cells harboring KRAS mutant/wild type BRAF/PIK3CA D549N mutant after 72 hrs by CCK8 assay; assay type: functional, cell-based
[10] = Volume of distribution at steady state in Sprague-Dawley rat at 2 mg/kg, iv; assay type: ADME, organism-based; details: in vivo, read-out: Vdss
[11] = system: MDA-MB-231; assay: Antiproliferative activity against human MDA-MB-231 cells harboring KRAS mutant/wild type BRAF/PIK3CA after 72 hrs by CCK8 assay; assay type: functional, cell-based
[12] = system: NCI-H1299; assay: Antiproliferative activity against human NCI-H1299 cells harboring wild type BRAF/KRAS/PIK3CA after 72 hrs by CCK8 assay; assay type: functional, cell-based
[13] = system: SW480; assay: Antiproliferative activity against human SW480 cells harboring KRAS mutant/wild type BRAF/PIK3CA after 72 hrs by CCK8 assay; assay type: functional, cell-based
[14] = Clearance in Sprague-Dawley rat at 2 mg/kg, iv; assay type: ADME, organism-based; details: in vivo
[15] = system: HT-29; assay: Antiproliferative activity against human HT-29 cells harboring BRAF mutant/PIK3CA mutant/wild type KRAS after 72 hrs by CCK8 assay; assay type: functional, cell-based
[16] = system: HeLa; assay: Antiproliferative activity against human HeLa cells harboring wild type BRAF/KRAS/PIK3CA after 72 hrs by CCK8 assay; assay type: functional, cell-based
[17] = system: A549; assay: Antiproliferative activity against human A549 cells harboring KRAS mutant/wild type BRAF/PIK3CA after 72 hrs by CCK8 assay; assay type: functional, cell-based
[18] = Oral bioavailability in Sprague-Dawley rat at 10 mg/kg via gavage; assay type: ADME, organism-based; details: in vivo
[19] = target: Dual specificity mitogen-activated protein kinase kinase 1 (Homo sapiens, UniProt Q02750)
Chain of Dual specificity mitogen-activated protein kinase kinase 1 (Q02750 whole entry): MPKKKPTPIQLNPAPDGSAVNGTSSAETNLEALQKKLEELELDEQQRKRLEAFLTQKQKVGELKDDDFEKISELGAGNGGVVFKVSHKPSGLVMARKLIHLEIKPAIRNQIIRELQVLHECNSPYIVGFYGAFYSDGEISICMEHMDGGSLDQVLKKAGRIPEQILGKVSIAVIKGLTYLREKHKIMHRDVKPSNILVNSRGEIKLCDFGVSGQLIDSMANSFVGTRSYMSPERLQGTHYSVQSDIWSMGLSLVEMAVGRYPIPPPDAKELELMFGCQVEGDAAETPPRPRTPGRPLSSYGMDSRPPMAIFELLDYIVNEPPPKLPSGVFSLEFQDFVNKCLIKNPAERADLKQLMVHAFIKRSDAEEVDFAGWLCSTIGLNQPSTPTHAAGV
Description: Inhibition of MEK1 (unknown origin) using Ser/Thr 03 peptide substrate after 4 hrs by fluorescence assay

Compound: O=C(NOCCO)c1cc2c(c(F)c1Nc1ccc(Br)cc1Cl)OCC2
- IC50 [1]: > 1000 nM

Compound: O=C(NOCCO)c1cc2c(c(Cl)c1Nc1ccc(I)cc1F)OCC2
- IC50 [1]: 38.4 nM

Compound: O=C(NOCCO)c1cc2c(cc1Nc1ccc(I)cc1F)OCC2
- IC50 [1]: > 1000 nM

Compound: O=C(NOC[C@@H](O)CO)c1cc2c(c(F)c1Nc1ccc(I)cc1F)OCC2
- IC50 [1]: 90.1 nM

Compound: O=C(NOCCCO)c1cc2ccoc2c(F)c1Nc1ccc(I)cc1F
- IC50 [1]: 76.5 nM

Compound: O=C(NC[C@H](O)CO)c1cc2c(c(F)c1Nc1ccc(I)cc1F)OCC2
- IC50 [19]: > 1000 nM

Compound: CC(C)(CO)ONC(=O)c1cc2ccoc2c(F)c1Nc1ccc(I)cc1F
- IC50 [1]: 12 nM

Compound: Cn1cnc2c(F)c(Nc3ccc(Br)cc3Cl)c(C(=O)NOCCO)cc21 [SELUMETINIB]
- Activity [7]: Non-Toxic
- inhibition in vivo at 10 mg/kg [8]: 60%
- IC50 [1]: 59 nM
- Activity [11]: inactive
- Activity [17]: inactive

Compound: O=C(c1cc2c(c(F)c1Nc1ccc(I)cc1F)OCC2)N1C[C@@H](O)CO1
- IC50 [19]: > 1000 nM
- IC50 [1]: > 1000 nM

Compound: O=C(NC[C@@H](O)CO)c1cc2c(c(F)c1Nc1ccc(I)cc1F)OCC2
- IC50 [19]: > 1000 nM

Further molecules by falling IC50 [1], results first:

- IC50 [1]: 10 nM
Compound: O=C(NOCCO)c1cc2c(c(F)c1Nc1ccc(I)cc1F)OCC2

- half-life [2]: 2 h
- AUC(0-t) [3]: 1470 ng·h/mL
- Cmax [4]: 342 ng/mL
- IC50 [1]: 7.2 nM
- Vd [10]: 9.4 L/kg
- clearance [14]: 73.6 mL/min/kg
- bioavailability [18]: 62%
Compound: O=C(NOC[C@H](O)CO)c1cc2c(c(F)c1Nc1ccc(I)cc1F)OCC2

- half-life [2]: 2.5 h
- AUC(0-t) [3]: 43300 ng·h/mL
- Cmax [4]: 13600 ng/mL
- IC50 [1]: 4.7 nM
- Vd [10]: 0.8 L/kg
- clearance [14]: 3.4 mL/min/kg
- bioavailability [18]: 80%
Compound: O=C(NOC(CO)CO)c1cc2ccoc2c(F)c1Nc1ccc(I)cc1F
- Activity [5]: inactive
- Activity [6]: Active
- Activity [7]: Non-Toxic
- inhibition in vivo at 10 mg/kg [8]: 78%
- Activity [9]: Active
- Activity [11]: Active
- Activity [12]: inactive
- Activity [13]: Active
- Activity [15]: Active
- Activity [16]: inactive
- Activity [17]: Active

- half-life [2]: 1.7 h
- AUC(0-t) [3]: 8370 ng·h/mL
- Cmax [4]: 2080 ng/mL
- IC50 [1]: 2.9 nM
Compound: O=C(NOCCO)c1cc2ccoc2c(F)c1Nc1ccc(I)cc1F

- half-life [2]: 3.4 h
- AUC(0-t) [3]: 2860 ng·h/mL
- Cmax [4]: 695 ng/mL
- IC50 [1]: 2.5 nM
Compound: O=C(NOC[C@H](O)CO)c1cc2ccoc2c(F)c1Nc1ccc(I)cc1F
